Among the test systems are OVCAR-5 ovarian; OVCAR-3 ovarian; NCI-H522 lung; HCT-15 colon; OVCAR-4 ovarian; A498 renal; TK-10 renal; ACHN renal; RPMI-8226 leukemia; NCI-H226 lung.
What all share (test): DTP human tumour cell line panel, 48 h

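All cell lines were grown in 96-well plates and treated with compound for 48 hours. Abbreviation: GI50, concentration required for 50% inhibition of growth. At the TGI there is no net growth.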 A value given as a limit tells only on which side of the number the result lay.

Broadly, the GI50 is the concentration giving 50% growth inhibition. The TGI is the concentration giving total growth inhibition. Read a high TGI as less potent growth arrest.

For `CCCCCCN(CCCCCC)CCCNc1nccc2ccccc12`, the GI50 in the experiment with OVCAR-5 ovarian was 1.63 µM; with OVCAR-3 ovarian it was 1.73 µM; in the experiment on NCI-H522 lung, 1.44 µM; in the experiment with HCT-15 colon, 1.41 µM; in the experiment with OVCAR-4 ovarian it was 2.09 µM; with A498 renal, 1.08 µM. Further, the GI50 in the experiment with TK-10 renal was 1.47 µM; with ACHN renal, 1.9 µM; in the experiment with RPMI-8226 leukemia, 1.73 µM; in the experiment on NCI-H226 lung, 1.61 µM. The TGI in the experiment on OVCAR-5 ovarian is 4.3 µM; in the experiment on OVCAR-3 ovarian it was 3.55 µM; with NCI-H522 lung it was 3.23 µM; in the experiment with HCT-15 colon, 3.21 µM; with OVCAR-4 ovarian, 7.72 µM; in the experiment on A498 renal, 2.8 µM. The TGI with TK-10 renal amounted to 3.02 µM; with ACHN renal, 4.47 µM; in the experiment with RPMI-8226 leukemia it was 4.11 µM; in the experiment with NCI-H226 lung, 3.5 µM.
For `CCCCCCCCCc1cc(O)c(O)cc1CCCCCCCCC`, the TGI in the experiment with OVCAR-5 ovarian, in the experiment on OVCAR-3 ovarian, in the experiment with NCI-H522 lung, with HCT-15 colon, in the experiment on OVCAR-4 ovarian and in the experiment with A498 renal was more than 10 µM each time. The TGI in the experiment with TK-10 renal, in the experiment on ACHN renal, in the experiment on RPMI-8226 leukemia and in the experiment on NCI-H226 lung was more than 10 µM in each case.
As to `Nc1nnc2nc(CC(=O)/C=C/c3ccccc3)c(=O)[nH]n12`, the TGI with OVCAR-5 ovarian, with OVCAR-3 ovarian, in the experiment with NCI-H522 lung, in the experiment with HCT-15 colon, with OVCAR-4 ovarian and in the experiment with A498 renal was more than 100 µM each time. In addition, the concentration for total growth inhibition (TGI) in the experiment with TK-10 renal, in the experiment with ACHN renal, in the experiment with RPMI-8226 leukemia and in the experiment on NCI-H226 lung was more than 100 µM each time.
Take `O=C1C2=C(C(=O)c3c(O)ccc(O)c31)N(c1ccc(N3CCOCC3)nc1)Cc1ccccc1O2`: the GI50 with OVCAR-5 ovarian is 0.777 µM; with OVCAR-3 ovarian, 0.227 µM; in the experiment on NCI-H522 lung, 0.0581 µM; in the experiment with HCT-15 colon it was 0.205 µM; in the experiment on OVCAR-4 ovarian, 0.282 µM; in the experiment with A498 renal, 2.3 µM. For the same compound, the 50% growth inhibitory concentration (GI50) in the experiment on TK-10 renal is 0.339 µM; with ACHN renal, 0.0534 µM; with RPMI-8226 leukemia, 0.265 µM; in the experiment with NCI-H226 lung, 1.91 µM. Moreover, the total growth inhibition concentration (TGI) with OVCAR-5 ovarian worked out at 2.3 µM; in the experiment with OVCAR-3 ovarian, 0.651 µM; with NCI-H522 lung, 0.194 µM; in the experiment with HCT-15 colon it was 0.622 µM; in the experiment with OVCAR-4 ovarian, 1.05 µM; with A498 renal it was 4.74 µM. For the same compound, the concentration for total growth inhibition (TGI) was 0.947 µM with TK-10 renal, 0.237 µM in the experiment with ACHN renal, 0.945 µM with RPMI-8226 leukemia and 7.81 µM in the experiment with NCI-H226 lung.
With `CC(=O)CC(=O)CCCC(=O)Nc1ccc(Cl)cc1C`, the TGI in the experiment on OVCAR-5 ovarian, in the experiment on OVCAR-3 ovarian, in the experiment with NCI-H522 lung, in the experiment on HCT-15 colon, in the experiment with OVCAR-4 ovarian and in the experiment with A498 renal was more than 100 µM each time. In addition, the concentration for total growth inhibition (TGI) with TK-10 renal, in the experiment with ACHN renal, in the experiment on RPMI-8226 leukemia and in the experiment with NCI-H226 lung was more than 100 µM in each case.
Consider `COc1ccc2c(=O)c([Se]c3coc4cc(OC)ccc4c3=O)coc2c1`, for which the TGI in the experiment on OVCAR-5 ovarian, in the experiment on OVCAR-3 ovarian, with NCI-H522 lung, with HCT-15 colon, in the experiment on OVCAR-4 ovarian and with A498 renal was more than 100 µM in each case. Also, the total growth inhibition concentration (TGI) in the experiment with TK-10 renal, in the experiment with ACHN renal, in the experiment on RPMI-8226 leukemia and in the experiment on NCI-H226 lung was more than 100 µM each time.
`O=S(=O)(NCCNc1nccc(-c2c(-c3cccc(O)c3)nc3sccn23)n1)c1ccc(F)cc1`: the GI50 in the experiment on OVCAR-5 ovarian was 17.8 µM; in the experiment with OVCAR-3 ovarian it was 8.53 µM; in the experiment on NCI-H522 lung, 6.44 µM; in the experiment on HCT-15 colon it was 10.8 µM; in the experiment with OVCAR-4 ovarian it was 6.5 µM; in the experiment with A498 renal it was 7.58 µM. In addition, the GI50 in the experiment on TK-10 renal was 11.9 µM; in the experiment on ACHN renal, 3.53 µM; in the experiment with RPMI-8226 leukemia, 4.26 µM; with NCI-H226 lung, 7.03 µM. In addition, the TGI stood at 64.6 µM in the experiment on OVCAR-5 ovarian; 34.5 µM in the experiment with OVCAR-3 ovarian; 27.1 µM with NCI-H522 lung; 55.4 µM in the experiment on HCT-15 colon; 41.3 µM in the experiment with OVCAR-4 ovarian; 25.2 µM in the experiment with A498 renal. Moreover, the TGI in the experiment on TK-10 renal was 42.1 µM; in the experiment on ACHN renal, 28.4 µM; with RPMI-8226 leukemia, 22.7 µM; in the experiment with NCI-H226 lung it was 45 µM.
With `CSC1=Nc2c(c(C)c(-c3ccccc3)n2COC(CO)CO)C2=NC(=O)C(C)N12` (stereo not given), the GI50 in the experiment with OVCAR-5 ovarian, with OVCAR-3 ovarian, with NCI-H522 lung, with HCT-15 colon, in the experiment with OVCAR-4 ovarian and in the experiment with A498 renal was more than 100 µM in each case. For the same compound, the GI50 in the experiment with TK-10 renal, with ACHN renal, in the experiment with RPMI-8226 leukemia and in the experiment with NCI-H226 lung was more than 100 µM throughout. Further, the TGI in the experiment on OVCAR-5 ovarian, with OVCAR-3 ovarian, with NCI-H522 lung, in the experiment on HCT-15 colon, with OVCAR-4 ovarian and in the experiment on A498 renal was more than 100 µM in each case. Further, the concentration for total growth inhibition (TGI) with TK-10 renal, in the experiment on ACHN renal, in the experiment on RPMI-8226 leukemia and in the experiment on NCI-H226 lung was more than 100 µM in each case.
Take `N=C(N)n1ncc(Cl)c(Cl)c1=O`: the total growth inhibition concentration (TGI) in the experiment on OVCAR-5 ovarian was 30.7 µM; in the experiment on OVCAR-3 ovarian, 3.31 µM; in the experiment with NCI-H522 lung it was 3.43 µM; with HCT-15 colon, 3.99 µM; with OVCAR-4 ovarian, 3.41 µM; in the experiment with A498 renal, 35.1 µM. For the same compound, the TGI in the experiment with TK-10 renal came to 35.3 µM; in the experiment on ACHN renal, 14.3 µM; in the experiment with RPMI-8226 leukemia, 7.55 µM; in the experiment with NCI-H226 lung, 18.3 µM.

(Values after PubChem BioAssay (NCI).)
